Source: patent US12161763B2, “Formulation and method for increasing oral bioavailability of drugs” (Yissum Research Development Company of the Hebrew …, priority 2012, dated 2024)
“And” between values parts separate entries of the source, which are not always exact repeats. Equal values may be shown once. Where a name gives a salt, the structure may show the parent alone.

Assays:
Male Wistar rats = test: AM pharmacodynamic study: heart rate and IBI by radiotelemetry; assay type: in vivo; conditions: 12.5 mg/kg AM PO
Method: The deferential effect of AM on heart rate was used as a pharmacodynamic marker for assessment of AM pharmacological effect following oral administration.
Male Wistar rats (Harlan, Israel) weighing 300-350 g were kept under a 12 h light/dark cycle with free access to water and food (standard rat chow) Animals were anesthetized for the period of surgery by intraperitoneal injection of 1 mL/kg of ketamine-xylazine solution (90/10%, respectively).
An ECG transmitter (TA11CA-F40, Data Sciences International Inc., St. Paul, MN) was implanted subcutaneously over the scapula with the leads in a Lead 2 configuration by tunneling subcutaneously from the dorsal incision using a trocar. The negative lead was placed in the area of the right shoulder and the positive lead was placed immediately to the left of the xyphoid space and caudal to the rib cage.
The signal from the transmitters was received by two RLA 2000 receivers and transmitted via a Data Exchange Matrix to a Dataquest PCI card. The data were recorded continuously during the whole experiment at 1000 Hz rate with no filter cutoff and full scale at 10 mV.
The collected data were interpreted by Dataquest A.R.T program. The IBI (R-R duration, sec) and HR (bpm) were calculated in average values of each 10 min of the recording.
At the beginning the baseline were recorded at least for 120 min. After establishing stable recording the rats were treated by oral gavage. During the treatment the data was collected and afterwards extracted in further analysis.
Two groups of three rats received the treatment in a cross over manner, meaning each rat received each treatment once. The treatments were as follows:
Blank nano-lipospheres not containing AM was freshly prepared as described above and was administered by oral gavage. […] .
In order to inspect separately the effect of each delivery method, we first calculated the mean baseline IBI duration throughout 60 min prior the administration. The drug was administered at t=60 min Post administration the data was calculated throughout 180 min. The net change was calculated as the percentage of the change for each drug administration mode relative to the baseline recording. The changes from base-line in two parameters: IBI and HR were analyzed in two points: 90 min. post administration (mid phase) and 180 min post administration (end phase) (Tables 9A-B and 10A-B, respectively).

[1] = Tacrolimus oral bioavailability study; assay type: in vivo, Male Wistar rats
[2] = Absorption enhancer pro-nano-liposphere development: dissolution in pre-concentrate and precipitation on dilution with water; assay type: physicochemical; conditions: for precipitation of the absorption enhancer upon dilution with water phase: curcumin 1% and 2%, resveratrol, piperine 2%
Method: The development of each of the formulations, in terms of a selection of the different components, was conducted by the following method. A combination of certain components was used as a reference starting point (as per Table 16). The choice of these certain triglyceride, organic amphiphilic co-solvent and the combination of surfactants in the detailed portions in Table 16 was based on the inventors' previous experience with various lipophilic drugs. Thus, an absorption enhancer was added to this specified prototype formulation to form a pre-concentrate.

[3] = Talinolol relative oral bioavailability study; assay type: in vivo; conditions: male, Wistar, rat, plasma; PO 4 mg/kg talinolol, rats
Method: The obtained talinolol concentration was 1 mg/mL. […] The control group received 4 mg/kg talinolol dissolved in PEG400:water:ethanol 25:60:15 to obtain 1 mg/mL concentration (n=6).

[4] = Compatibility of BCS class II and IV drugs with the piperine-PNL pre-concentrate; assay type: physicochemical
Source text: In order to determine the compatibility of the developed PNL delivery system with various lipophilic drugs, we have tested the ability of the piperine-PNL to dissolve various BCS class II and IV drugs.

[5] = CBD relative oral bioavailability: CBD, CBD-PNL and CBD-PNL with absorption enhancers; conditions: male, Wistar, rat, in vivo; PO CBD 15 mg/kg; Piperine 10 mg/kg, rats; mean ± S.E.M.
Method: The obtained CBD and piperine concentrations were 3 mg/mL and 2 mg/ml, respectively. […] The control groups received (15 mg/kg) CBD solution in propylene glycol/EthOH/water 30/30/40 respectively (1 mg/mL) (n=6) or CBD-PNL ((15 mg/kg of CBD).

[6] = CBD nano lipospheres relative oral bioavailability study; assay type: in vivo; conditions: male, Wistar, rat, plasma; PO 15 mg/kg CBD, rats
Method: The obtained CBD concentration was 3 mg/mL. […] The control group received (15 mg/kg) CBD solution in propylene glycol/EthOH/water 30/30/40 respectively (1 mg/mL) (n=6).

CYP3A4 = conditions: 120 min incubation in isolated rat microsomes
[7] = 90 min post administration, HCl
[8] = 180 min post administration, HCl

CCCCc1oc2ccccc2c1C(=O)c1cc(I)c(OCCN(CC)CC)c(I)c1 [AM, Amiodarone HCl]
HEART RATE (BPM) MID PHASE (Male Wistar rats; 90 min post administration): 452.916 ± 20.01 BPM | IBI (sec) MID PHASE (Male Wistar rats; 90 min post administration): 0.1435 ± 0.008 s | HEART RATE CHANGE % (percentage from baseline), mid phase (Male Wistar rats; [7]): 131.28% and 131.28 (*) % | IBI CHANGE % (percentage from baseline), mid phase (Male Wistar rats; [7]): 88.86% and 88.86 (*) % | IBI (sec) END PHASE (Male Wistar rats; 180 min post administration): 0.143 ± 0.007 s | HEART RATE (BPM) END PHASE (Male Wistar rats; [8]): 443.071 ± 11.06 BPM and 443.07 ± 11.06 BPM | HEART RATE CHANGE % (percentage from baseline), end phase (Male Wistar rats; [8]): 128.43% and 128.43 (*) % | IBI CHANGE % (percentage from baseline), end phase (Male Wistar rats; [8]): 89.79% and 89.79 (*) % | heart rate following administration (Male Wistar rats; phase not given): 452.916±20.01 BPM | mean IBI following administration (Male Wistar rats; phase not given): 0.143 ± 0.0074 s

C=CC[C@@H]1/C=C(\C)C[C@H](C)C[C@H](OC)[C@H]2O[C@@](O)(C(=O)C(=O)N3CCCC[C@H]3C(=O)O[C@H](/C(C)=C/[C@@H]3CC[C@@H](O)[C@H](OC)C3)[C@H](C)[C@@H](O)CC1=O)[C@H](C)C[C@@H]2OC [tacrolimus]
Coefficient of variation (% CV) of plasma tacrolimus concentrations ([1]; 0.25 h after PO 1 mg/kg): 95.1% | Coefficient of variation (% CV) of plasma tacrolimus concentrations ([1]; 0.5 h after PO 1 mg/kg): 90.8% | Coefficient of variation (% CV) of plasma tacrolimus concentrations ([1]; 0.75 h after PO 1 mg/kg): 73.2% | Coefficient of variation (% CV) of plasma tacrolimus concentrations ([1]; 1 h after PO 1 mg/kg): 83.5% | Coefficient of variation (% CV) of plasma tacrolimus concentrations ([1]; 2 h after PO 1 mg/kg): 103.5%

COc1cc(/C=C/C(=O)CC(=O)/C=C/c2ccc(O)c(OC)c2)ccc1O [curcumin]
precipitation of the absorption enhancer upon dilution with water phase [2]: precipitation

CC(C)(C)NCC(O)COc1ccc(NC(=O)NC2CCCCC2)cc1 (stereo not drawn) [Talinolol, talinolol]
AUC [3]: 11.9 ng·h/mL | Cmax [3]: 5.55 ± 1.65 ng/mL | half-life [3]: 1.15 ± 0.19 h

Oc1ccc(C=Cc2cc(O)cc(O)c2)cc1 [resveratrol]
dissolution of the absorption enhancer in the pre-concentrate / appearance of pre-concentrate [2]: homogeneous and visually clear pre-concentrate | precipitation of the absorption enhancer upon dilution with water phase [2]: No precipitation

C[C@@H]1[C@H](O)[C@@H](C)/C=C/C=C/C=C/C=C/C=C/C=C/C=C/[C@H](O[C@@H]2O[C@H](C)[C@@H](O)[C@H](N)[C@@H]2O)C[C@@H]2O[C@](O)(C[C@@H](O)C[C@@H](O)[C@H](O)CC[C@@H](O)C[C@@H](O)CC(=O)O[C@H]1C)C[C@H](O)[C@H]2C(=O)O [Amphotericin B]
compatibility with the pre-concentrate [4]: incompatible

C=C(C)[C@@H]1CCC(C)=C[C@H]1c1c(O)cc(CCCCC)cc1O [CBD, Cannabidiol]
AUC [5]: 90 ± 21 ng·h/mL | Cmax [5]: 39 ± 8 ng/mL | AUC [6]: 259 ng·h/mL | Cmax [6]: 105 ± 103 ng/mL

C[C@]12CC[C@H]3[C@@H](CCC4=CC(=O)CC[C@@]43C)[C@@H]1CC[C@@H]2O [testosterone]
testosterone remaining (CYP3A4): 75.39±8.82%
